Experimental data as given in PMC10147046, “Assessment of Various Food Proteins as Structural Materials for Delivery of Hydrophobic Polyphenols Using a Novel Co-Precipitation Method” (Molecules, 2023).
In brackets after ≈: the same amount, converted by molar mass.

What was measured:
[1] = Solubility of the powders in water (phosphate buffer), HPLC quantification; assay type: physicochemical; details: for Increase in solubility of co-precipitate compared to intrinsic (untreated) solubility: polyphenol co-precipitated with protein and trehalose vs untreated, phosphate buffer pH 7.0; for solubility at 24 h: aqueous buffer, thermodynamic from solid
Protocol: To measure the amount of the polyphenol entrapped inside the NaCas, SPI, and WPI precipitates (entrapment efficiency), the concentration of each polyphenol in the supernatants was determined by high-performance liquid chromatography (HPLC) following different methods (depending on the polyphenol). The HPLC instrument was equipped with a UV/visible diode array detector (Agilent Technologies, 1200 Series, Santa Clara, CA, USA). The column was a reverse-phase PrevailTM C18 with dimensions of 4.6 cm × 150 mm and 5 µm particle size (Grace Alltech, Columbia, MD, USA). The composition and conditions of the mobile phase varied based on the method used for the quantification of each polyphenol. […] The sample injection volume for all cases was 20 µL. Different polyphenols were detected at different wavelengths and different retention times; e.g., naringenin and rutin were detected at 10.15 and 4.8 min, respectively. For the calibration of the HPLC column and quantification of each polyphenol in the samples, standard solutions of various concentrations of pure polyphenols (94 to 98%) in the mobile phase were used. […] Thermo Scientific, Waltham, MA, USA) before injecting them into the HPLC column. […] The dispersibility of the lyophilized powders and the untreated samples was measured according to the method from Ji et al.. For this purpose, we used a Malvern Mastersizer 2000 (Malvern Instruments Ltd., Worcestershire, UK), which was equipped with a 4 mW He–Ne laser operating apparatus. […] To avoid artifacts (large lumps) from the initial dispersion, the Time 0 min measurement was removed, and the data from 2 to 60 min were collected. A separate normalization was applied to the obscuration indices across the dispersion period for each sample by dividing each index by the maximum index. Finally, the volume distribution data were multiplied by the normalized obscuration index at each time point.

[2] = Dispersibility in water: particle size distribution over time (Malvern Mastersizer 2000); assay type: physicochemical; details: for Dispersibility of untreated polyphenol: untreated powder, phosphate buffer pH 7.0, over 60 min; for Particle size after treatment in the absence of trehalose: polyphenol precipitate without protein and without trehalose; for Particle size reached over time, WPI co-precipitates: over 60 min; for Size of additional significant particle population after treatment: distribution at least bi-modal
Protocol: The particle size distribution of untreated (control) polyphenols vs. the polyphenols co-precipitated with NaCas, SPI, and WPI after dispersion in phosphate buffer (pH 7.0) is presented in Figure 4. As stated in Section 3.6, in the case of the current research, we measured dispersibility based on the decrease in the size of particles dispersed in the aqueous medium over time.
The dispersibility of the lyophilized powders and the untreated samples was measured according to the method from Ji et al.. For this purpose, we used a Malvern Mastersizer 2000 (Malvern Instruments Ltd., Worcestershire, UK), which was equipped with a 4 mW He–Ne laser operating apparatus. To start with, about 30 mg of each powder was added to the dispersion unit containing phosphate buffer (10 mM NaH2PO4, pH 7.0), and this mixture was stirred (2000 rpm) for 60 min. The particle size distribution obscuration values of each sample were read at 2 min intervals and a wavelength of 632.8 nm. To avoid artifacts (large lumps) from the initial dispersion, the Time 0 min measurement was removed, and the data from 2 to 60 min were collected. A separate normalization was applied to the obscuration indices across the dispersion period for each sample by dividing each index by the maximum index. Finally, the volume distribution data were multiplied by the normalized obscuration index at each time point.

[3] = source not given; cited from earlier work
[4] = set-up: method as in PMID 30724197; details: cited from earlier work
[5] = reference compounds of Table 1; one cell merged over all four solubility columns; no source or measurement printed; cited from earlier work
[6] = set-up: method as in PMID 35056844; details: rutin dissolved in solution maintained at pH 11.0 for 30 min; cited from earlier work
[7] = untreated (commercial) polyphenol, phosphate buffer pH 7.0, 25 °C
[8] = polyphenol precipitate without protein, absence of trehalose

Compound	Dispersibility of untreated polyphenol [2]	Solubility in ethanol [3]	solubility at 24 h [1, 7] [µg/mL]	Size of additional significant particle population after treatment [2, 8] [µm]	further results
Curcumin	None of the untreated forms of rutin, naringenin, hesperidin, and curcumin (Figure 4) showed any significant dispersibility over 60 min	~10000 µg/mL			Increase in solubility of co-precipitate compared to intrinsic (untreated) solubility [1]: ~10 fold; Solubility (Untreated) [1, 7]: 8 µg/mL; Size of minor particle population after treatment [2, 8]: ~ 160 μm
COc1ccc([C@@H]2CC(=O)c3c(O)cc(O[C@@H]4O[C@H](CO[C@@H]5O[C@@H](C)[C@H](O)[C@@H](O)[C@H]5O)[C@@H](O)[C@H](O)[C@H]4O)cc3O2)cc1O [Hesperidin]	None of the untreated forms of rutin, naringenin, hesperidin, and curcumin (Figure 4) showed any significant dispersibility over 60 min	~1000 µg/mL (≈ 1640 µM)	2 (≈ 3.28 µM)		Particle size after treatment in the absence of trehalose [2]: 30 μm; Particle size, untreated polyphenol ([2]; untreated powder dispersed in phosphate buffer): ~ 60 μm
O=c1c(-c2ccc(O)cc2)coc2cc(O)ccc12 [daidzein]					Enhancement of daidzein solubility ([4]; WPI nanoparticles formed in the presence of daidzein): at least 2 fold; Stability ([4]; WPI-daidzein nanoparticles, 4 °C): stable at 4 °C for at least two months
Oc1ccc(-c2ccc(O)cc2O)c(O)c1 [[1,1′-Biphenyl]-2,2′,4,4′-tetrol]					Solubility (reference compounds, in words) [5]: low?
O=C1C[C@@H](c2ccc(O)cc2)Oc2cc(O)cc(O)c21 [Naringenin, (S)-naringenin]	None of the untreated forms of rutin, naringenin, hesperidin, and curcumin (Figure 4) showed any significant dispersibility over 60 min	~1000 µg/mL (≈ 3670 µM)	2 (≈ 7.35 µM)	~0.1	Particle size reached over time, WPI co-precipitates [2]: less than 1 μm; Particle size after treatment in the absence of trehalose [2]: ~ 6 μm
Oc1cc(O)c2c(c1)O[C@H](c1ccc(O)c(O)c1)[C@@H](O)C2 [Catechin, (+)-catechin]	showed some dispersibility	~100000 µg/mL (≈ 345000 µM)	1.5 (≈ 5.17 µM)	~0.1	Increase in solubility of co-precipitate compared to intrinsic (untreated) solubility [1]: ~10 fold
C[C@@H]1O[C@@H](OC[C@H]2O[C@@H](Oc3c(-c4ccc(O)c(O)c4)oc4cc(O)cc(O)c4c3=O)[C@H](O)[C@@H](O)[C@@H]2O)[C@H](O)[C@H](O)[C@H]1O [Rutin]	None of the untreated forms of rutin, naringenin, hesperidin, and curcumin (Figure 4) showed any significant dispersibility over 60 min	about 4 mg/mL	110 (≈ 180 µM)	~0.1	Particle size reached over time, WPI co-precipitates [2]: less than 1 μm; Size of smaller particles favoured over time, NaCas co-precipitate ([2]; co-precipitate with NaCas, redistribution of particle size over time): 0.1 μm; Effect of treatment (no protein) on dispersibility ([2]; treated polyphenol precipitates with or without trehalose): Treatment improved the dispersibility only of rutin; Degradation [6]: approximately 10%
